Test [1] deals with immunoaffinity purified RA auto-antibodies. The experiment in a line: Immuno-blotting of cellulose-bound spot peptides with immunoaffinity purified RA auto-antibodies (Example 5). The test is classed as binding, human. As to conditions: IgM RF eluted from IgG Sepharose, 1 μg/mL. An excerpt:
Analysis of IgM auto-antibodies opens up the possibility of removing endogenous IgG from the serum samples prior to analysis for auto-antibodies.
1. IgG is coupled to CNBr activated Sepharose using the manufacturers instructions (Pharmacia, Upsala, Sweden).
2. The IgG Sepharose is packed in a suitable column (i.e. a disposable DG10 column, BioRad laboratories, Richmond, Calif.). The column is washed with at least 10 column volumes PBS and with 10 column volumes 0.1 M sodium acetate, 0.15 M sodium chloride pH 3.5 and finally equilibrated in PBS.
3. Serum from RA patients is diluted 10 times in PBS and loaded on the column. The column is washed with PBS until the absorbency (OD 280 nm) reaches base-line.
4. Bound RF's are eluted with 0.1 M sodium acetate, 0.15 M sodium chloride pH 3.5.
5. IgM is separated from IgG and IgA by gel-filtration on a Sephadex G-200 column in 0.1 M sodium acetate, 0.15 M sodium chloride pH 3.5.
6. Eluted IgM is diluted in PBS-BT to 1 μg/mL and assayed as described below.
Seven amino-acid peptides extending over the Asn-315 residue were synthesised by spot synthesis using Whatman 540 paper (Maidstone, U.K.), using the previously described procedures (Frank, 1992, Kramer et al 1994). The peptides were automatically prepared using a spot synthesis method (Abimed, Langenfeld, F R G). The following peptides were synthesised, covalently attached via the carboxy-terminus: […]

Test [2] concerns human immunoglobulin in sera from patients with multiple sclerosis. The experiment in a line: Homogeneous RIA with 125I BSA-BS3 MBP octapeptide tracer in MS and control sera (Example 6). The test is classed as binding. Particulars: free peptide 10 μg/ml, 25 μl; % inhibition higher in MS sera than control sera (p=0.008); FIG. 9C. An excerpt: For this purpose the MBP derived octapeptide Pro-Ser-Glu-γ-Gly-Lys-Gly-Arg-Gly (γL) was manufactured synthetically using standard FMOC chemistry. The peptide was conjugated to bovine serum albumin […] by Bis-[sulfosuccinimidyl]suberate(BS^3) according to the manufacturers instructions (Pierce) and iodinated with ^125I using the chloramine T protocol as described in Example 4.
Serum from 9 MS-patients and 8 healthy persons are reacted overnight with ^125I—BSA-S^3-Pro-Ser-Glu-y-Gly-Lys-Gly-Arg-Gly followed by precipitation of immune complexes with protein A Sepharose. Serum samples are diluted 1:200 in IMP buffer. The ^125I BSA-BS^3-Pro-Ser-Glu-y-Gly-Lys-Gly-Arg-Gly tracer is diluted in IMP buffer (to an activity of 100000 CPM/25 μl). Seventy-five Al of diluted serum sample is mixed with 25 μl tracer and 25 μl of either IMP buffer or free (unconjugated/unlabelled) Pro-Ser-Glu-y-Gly-Lys-Gly-Arg-Gly peptide (in a concentration of 10 μg/ml in IMP buffer) is added to this mixture. This mixture incubated overnight at 4° C. Protein A Sepharose (PAS) 20 μl/sample vial is weighed out and washed 3 times with 10 ml IMP washing buffer, and transferred to eppendorf 1.5 ml tubes using a repeater pipette. The PAS is sedimented by centrifugation at 2000 RPM 2 min., and the supernatant is aspirated using a suction device (or a pipette). […]

In test [3] the test system is auto-antibodies in RA sera. The experiment in a line: ELISA of serum auto-antibodies on MTP coated with Thy-GA peptide conjugate (Example 2). As to conditions: RA RF+ sera vs RA RF- sera vs control sera; serum diluted one-hundred fold; conjugate coated at 10 μg/ml; FIG. 5. The test is classed as binding, human. An excerpt: It was investigated whether auto-antibodies would recognise an Asn-315 derived septa-peptide and whether such auto-antibodies are a characteristic feature of rheumatoid arthritis. In order to carry out such investigations the IgG Fc Asn-315 derived (βL) septa-peptide Trp-Leu-Asp-β-Gly-Lys-Glu-Tyr, was manufactured synthetically. The peptide used was a preparation of linear (αL form) Trp-Leu-Asn-Gly-Lys-Glu-Tyr peptide heated to promote isomerisation by the following procedure. The peptide was dissolved in the buffer and heated for 4 hours at 90° C. to promote isomerisation and/or optical inversion. The resulting mix of isomerised (βL) optically inverted (αD and βD) and linear (αL) peptides were analysed by RP-HPLC using a 15-35% acetonitrile gradient in 0.1% TFA over 10 minutes with a flow rate of 1 ml/min, and the isomerisation status of the resulting peaks were studied by amino-acid analysis as described above. This peptide was dissolved at 5 mg/ml in 0.2 M Na-Phosphate pH 9.2. […]
0.5 ml thyroglobulin (30 mg/ml) in 0.1 M Na-phosphate buffer pH 8.0, was added drop-wise (over 2 minutes) and under constant mixing to 0.5 mL of the following solution: 10% GA, 40% H2O, 50% 0.2 M Na-Phosphate pH 8.0. […] The final volume was adjusted to 1500 μL and the protein concentration was determined by a BioRad protein assay performed according to the manufacturers instructions. […]

Test [4] has as its system RA autoantibodies. The experiment in a line: Competition ELISA: sera pre-incubated with peptides, then Thy-GA-Trp-Leu-*Asx-Gly-Lys-Glu-Tyr coated plates (Example 3). The test is classed as binding, human. As to conditions: 6 RA sera; 50 μl competitor at 50 μg/ml; 17 hours at 4° C.; FIG. 6. As for the experimental part: The binding of RA autoantibodies to the Thy-GA-Trp-Leu-*Asx-Gly-Lys-Glu-Tyr coated plates as described above could be competed out by pre-incubating the sera with Trp-Leu-*Asx-Gly-Lys-Glu-Tyr peptide in solution. The experiment was carried out as follows. Serum samples were diluted one-hundred fold in 10 mM Na-phosphate, 140 mM NaCl, 0.1% tween-20, 1% BSA pH 7.4 (assay buffer). Two-hundred μl was added to 1.5 ml polypropylene tubes followed by addition of 50 μl of the following reagents dissolved in assay buffer at a concentration of 50 μg/ml:
1. Trp-Leu-Asp-β-Gly-Lys-Glu-Tyr. (βL form of the epitope)
2. Trp-Leu-Asn-Gly-Lys-Glu-Tyr (αL form of the epitope)
3. Thy-GA-Trp-Leu-*Asx-Gly-Lys-Glu-Tyr conjugate (prepared as described in example 2).
The tubes were placed at 4° C. for 17 hours, and one-hundred μl of the mixture was added into MTP coated with Thy-GA-Trp-Leu-*Asx-Gly-Lys-Glu-Tyr conjugate. The assay was performed as described above under example 2.
(In an ELISA, binding on a coated surface is turned into a signal by an enzyme label.)

For test [5], the system named is auto-antibodies reactive with isomerised IgG Fc Asn-315 derived peptides. The experiment in a line: Homogeneous RIA with 125I Thy-GA-Trp-Leu-*Asx-Gly-Lys-Glu-Tyr tracer, competition with peptides (Example 4). As to conditions: 25 μl of 100, 1000 or 10,000 ng/ml competitor; peptide significant in the highest concentration; P=0.01 by Student's T-Test; FIG. 8. Type of test: binding, human. As for the experimental part:
A homogeneous RIA assay was developed for measurement of auto-antibodies with reactivity towards the isomerised form of the epitope Trp-Leu-Asn-Gly-Lys-Glu-Tyr derived from the IgG CH^2 region. The assay was performed by incubating serum samples with ^125I Thy-GA-Trp-Leu-*Asx-Gly-Lys-Glu-Tyr over-night followed by precipitation of immune-complexes with protein A Sepharose.
Serum samples are diluted 1:200 in IMP buffer (IMP-buffer: 10 mM Na-Phosphate, pH 7.4, 140 mM NaCl, 5 mM EDTA, 0.5% Triton X-100, 0.1% BSA, 10 μg/ml soy-bean trypsin inhibitor). A Thy-GA-Trp-Leu-*Asx-Gly-Lys-Glu-Tyr conjugate is prepared as described in example 2 and iodinated with ^125I using the chloramine T protocol: 100 μg of the conjugate is diluted in 0.25 M Na2HPO4 to a total volume of 140 μl. 1.5 mCi Na^125I is added followed by 10 μL Chloramin-T (1 mg/ml, prepared freshly). The solution is vortexed for 30 seconds and 150 μL methionine (1 mg/ml) is added and immediately vortexed for 120 sec. The tracer is purified on size exclusion column (type: BIOSEP SEC S-2000, size: 300×7.80 mm) equilibrated with PBS containing 1% BSA Flow rate 1.0 ml/min. 500 μl fractions are collected and analysed in a scintillation counter (γ-counter). The fractions containing the tracer are pooled and used in the homogeneous RIA assay format. […]

No end group written: not given here.

With “His-Gln-Asp-Trp-Leu-Asp-β-Gly [peptide IV]”, the “reactivity of purified RA auto-antibodies towards cellulose-bound peptide” value in test [1] was “strong reactivity”.

Regarding Pro-Ser-Glu-γ-Gly-Lys-Gly-Arg-Gly, the “inhibition of binding of the 125I conjugate to human immunoglobulin by free peptide” value in test [2] was “specifically inhibited”.

Consider “Trp-Leu-*Asx-Gly-Lys-Glu-Tyr (WLNGKEY; not fully specified (residue 3); printed as Trp-Leu-*Asx-Gly-Lys-Glu-Tyr; also: position 3 Asx: mixture of αD Asn/Asp, βD and βL Asp after heat isomerisation) [linear Trp-Leu-Asn-Gly-Lys-Glu-Tyr heated 4 hours at 90° C; in b143 coated as Thy-GA conjugate]”, for which, in test [3], the “auto-antibody reactivity (ELISA signal, absorbency at 450 nm) compared between patient groups” value is “elevated auto-antibody reactivity”. Further, the “competition of the binding of RA autoantibodies to Thy-GA-Trp-Leu-*Asx-Gly-Lys-Glu-Tyr coated plates” value in test [4] is “competed out”.

On to Trp-Leu-Asp-β-Gly-Lys-Glu-Tyr, for which the “competition of the binding of RA autoantibodies to Thy-GA-Trp-Leu-*Asx-Gly-Lys-Glu-Tyr coated plates” value in test [4] was “able to compete out the binding”. In addition, the “reactivity in RIA competition (percent inhibition in the presence of competing peptide), group basis” value in test [5] is “significant reactivity”.

As to Trp-Leu-Asp-β-Gly-lys-Glu-Tyr [VII], the “reactivity of purified RA auto-antibodies towards cellulose-bound peptide” value in test [1] is “strong reactivity”.

Source of the values: US20040058851A1, “Specific autoimmune reactions against isomerised/optically inverted epitopes: application for diagnosis of autoimmune diseases” (priority 1999, published 2004).
